# System: mice
# Test: Hypnotic activity: loss of righting reflex after intravenous injection in mice
# Type: in vivo
# Conditions: Mus musculus, intravenous injection over 10 seconds, dose causing loss of righting reflex for minimum 30 seconds in 50% of treated mice, read-out: HD50 (hypnotic dose50)
# Experimental: The hypnotic potency of the alanine 2,6-dialkoxyphenyl ester derivatives of the invention was determined upon their intravenous administration in mice. The dose required to cause a loss of righting reflex for a minimum period of 30 seconds in 50% of treated mice after intravenous injection over 10 seconds was determined. This dose is termed the HD50 (hypnotic dose50) and is expressed in μmol.kg^−1. These in vivo experiments were carried out as described in detail by Anderson et al., J. Med. Chem. 1997, 40, 1668–1681.
row,Molecule,ED50 [µmol/kg]
1,"COCC(C(=O)Oc1c(OC)cc(C)cc1OC)N1CCSCC1 (centres unmarked) [Example 3j, 3-Methoxy-2-[N-thiomorpholinyl]propionic acid, 2,6-dimethoxy-4-methylphenyl ester]",42
2,"COCCN(C)C(COC)C(=O)Oc1c(OC)cc(C)cc1OC (centres unmarked) [Example 3l, 3-Methoxy-2-[N-(2-Methoxyethyl)methylamino]propionic acid, 2,6-dimethoxy-4-methylphenyl ester]",58
3,"COCC(C(=O)Oc1c(OC)cc(C)cc1OC)N1CCCC1 (centres unmarked) [Example 3n, 3-Methoxy-2-[1-pyrrolidinyl]propionic acid, 2,6-dimethoxy-4-methylphenyl ester]",34
4,"COCCC(C(=O)Oc1c(OC)cccc1OC)N1CCOCC1 (centres unmarked) [Example 10b, 4-Methoxy-2-[4-morpholinyl]butyric acid, 2,6-dimethoxyphenyl ester]",38
5,"COCCC(C(=O)Oc1c(OC)cccc1OC)N1CCCCC1 (centres unmarked) [Example 10f, 4-Methoxy-2-[1-piperidinyl]butyric acid, 2,6-dimethoxyphenyl ester]",22
6,"COCCC(C(=O)Oc1c(OC)cc(C)cc1OC)N1CCOCC1 (centres unmarked) [Example 10i, 4-Methoxy-2-[4-morpholinyl]butyric acid, 2,6-dimethoxy-4-methylphenyl ester]",36
7,"CCOCCC(C(=O)Oc1c(OC)cccc1OC)N1CCOCC1 (centres unmarked) [Example 10o, 4-Ethoxy-2-[4-morpholinyl]butyric acid, 2,6-dimethoxyphenyl ester]",36
8,"CCOCCC(C(=O)Oc1c(OC)cccc1OC)N1CCCCCC1 (centres unmarked) [Example 10q, 4-Ethoxy-2-[1-hexahydroazepinyl]butyric acid, 2,6-dimethoxyphenyl ester]",25
9,"CCOCCC(C(=O)Oc1c(OC)cc(C)cc1OC)N1CCOCC1 (centres unmarked) [Example 10t, 4-Ethoxy-2-[4-morpholinyl]butyric acid, 2,6-dimethoxy-4-methylphenyl ester]",36
10,"CCOCCC(C(=O)Oc1c(OC)cc(C)cc1OC)N1CCCCCC1 (centres unmarked) [Example 10u, 4-Ethoxy-2-[1-hexahydroazepinyl]butyric acid, 2,6-dimethoxy-4-methylphenyl ester]",17
11,"COc1cccc(OC)c1OC(=O)C(CN1CCSCC1)N1CCSCC1 (centres unmarked) [Example 18a, 2,3-Di-(N-thiomorpholinyl)propanoic acid, 2,6-dimethoxyphenyl ester]",15
12,"COc1cccc(OC)c1OC(=O)C(CN1CCOCC1)N1CCOCC1 (centres unmarked) [Example 18c, 2,3-Di-(4-morpholinyl)propanoic acid, 2,6-dimethoxyphenyl ester]",31

# Same assay, conditions: intravenous injection over 10 seconds, dose causing loss of righting reflex for minimum 30 seconds in 50% of treated mice
row,Molecule,HD50 (hypnotic dose50) [µmol/kg]
1,"2-[N-(Bis(2-methoxyethyl)amino)]-4-ethoxybutyric acid, 2,6-dimethoxy-4-methylphenyl ester [Example 10v]",41
2,"2-[N-(Hexahydroazepinyl)]-3-methoxypropionic acid, 2,6-dimethoxyphenyl ester [Example 3d]",22
3,"COCC(C(=O)Oc1c(OC)cccc1OC)N1CCCOCC1 (centres unmarked) [Example 3a, 2-[4-(Hexahydro-1-oxazepinyl)]-3-methoxypropionic acid, 2,6-dimethoxyphenyl ester]",30
4,"COCCN(CCOC)C(COC)C(=O)Oc1c(OC)cccc1OC (centres unmarked) [Example 3b, 2-[N-Bis(2-methoxyethyl)amino]-3-methoxypropionic acid, 2,6-dimethoxyphenyl ester]",41
5,"COCC(C(=O)Oc1c(OC)cccc1OC)N1CCSCC1 (centres unmarked) [Example 3c, 3-Methoxy-2-[N-thiomorpholinyl]propionic acid, 2 ,6-dimethoxyphenyl ester]",21
6,"COCCCN(CCCOC)C(COC)C(=O)Oc1c(OC)cccc1OC (centres unmarked) [Example 3f, 2-[N-Bis(3-methoxypropyl)amino]-3-methoxypropionic acid, 2,6-dimethoxyphenyl ester]",46
7,"CCOCCN(CCOCC)C(COC)C(=O)Oc1c(OC)cccc1OC (centres unmarked) [Example 3g, 2-[N-Bis(3-ethoxyethyl)amino]-3-methoxypropionic acid, 2,6-dimethoxyphenyl ester]",25
8,"COCCN(CCOC)C(COC)C(=O)Oc1c(OC)cc(C)cc1OC (centres unmarked) [Example 3i, 2-[N-Bis(2-methoxyethyl)amino]-3-methoxypropionic acid, 2,6-dimethoxy-4-methylphenyl ester]",28
9,"COCC(C(=O)Oc1c(OC)cc(C)cc1OC)N1CCCOCC1 (centres unmarked) [Example 3m, 2-[4-(Hexahydro-1-oxazepinyl)]-3-methoxypropionic acid, 2,6-dimethoxy-4-methylphenyl ester]",31
10,"COCCCN(CCCOC)C(COC)C(=O)Oc1c(OC)cc(C)cc1OC (centres unmarked) [Example 3p, 2-[N-Bis(3-methoxypropyl)amino]-3-methoxypropionic acid, 2,6-dimethoxy-4-methylphenyl ester]",46
11,"CCOCCN(CCOCC)C(COC)C(=O)Oc1c(OC)cc(C)cc1OC (centres unmarked) [Example 3q, 2-[N-Bis(2-ethoxyethyl)amino]-3-methoxypropionic acid, 2,6-dimethoxy-4-methylphenyl ester]",23
12,"CCOCC(C(=O)Oc1c(OC)cccc1OC)N1CCCOCC1 (centres unmarked) [Example 3r, 3-Ethoxy-2-[4-(Hexahydro-1-oxazepinyl)]propionic acid, 2,6-dimethoxyphenyl ester]",20
13,"COCCN(CCOC)C(COC)C(=O)Oc1c(OC)cc(C)cc1OC (centres unmarked) [Example 4a, 2-[N-Bis(2-methoxyethyl)amino]-3-methoxypropionic acid, 2,6-dimethoxy-4-methylphenyl ester]",28
14,"COCCC(C(=O)Oc1c(OC)cccc1OC)N1CCCOCC1 (centres unmarked) [Example 10a, 2-[4-(Hexahydro-1-oxazepinyl)]-4-methoxybutyric acid, 2,6-dimethoxyphenyl ester]",15
15,"COCCC(C(=O)Oc1c(OC)cccc1OC)N1CC=CCC1 (centres unmarked) [Example 10c, 4-Methoxy-2-[1-(1,2,3,6-tetrahydropyridinyl)]butyric acid, 2,6-dimethoxyphenyl ester]",22
16,"COCCC(C(=O)Oc1c(OC)cccc1OC)N1CCC(OC)CC1 (centres unmarked) [Example 10d, 4-Methoxy-2-[1-(4-methoxypiperidinyl)]butyric acid, 2,6-dimethoxyphenyl ester]",21
17,"COCCC(C(=O)Oc1c(OC)cccc1OC)N1CCCCCC1 (centres unmarked) [Example 10e, 2-[1-(Hexahydroazepinyl)]-4-methoxybutyric acid, 2,6-dimethoxyphenyl ester]",17
18,"CCOCCN(CCOCC)C(CCOC)C(=O)Oc1c(OC)cccc1OC (centres unmarked) [Example 10g, 2-[N-(Bis(2-ethoxyethyl)amino)]-4-methoxybutyric acid, 2,6-dimethoxyphenyl ester]",28
19,"COCCC(C(=O)Oc1c(OC)cccc1OC)N(CCOC)CCOC (centres unmarked) [Example 10h, 2-[N-(Bis(2-methoxyethyl)amino)]-4-methoxybutyric acid, 2,6-dimethoxyphenyl ester]",27
20,"COCCC(C(=O)Oc1c(OC)cc(C)cc1OC)N1CCCOCC1 (centres unmarked) [Example 10j, 2-[4-(Hexahydro-1-oxazepinyl)]-4-methoxybutyric acid, 2,6-dimethoxy-4-methylphenyl ester]",25
21,"COCCC(C(=O)Oc1c(OC)cc(C)cc1OC)N1CCC(OC)CC1 (centres unmarked) [Example 10k, 4-Methoxy-2-[1-(4-methoxypiperidinyl)]butyric acid, 2,6-dimethoxy4-methylphenyl ester]",34
22,"COCCC(C(=O)Oc1c(OC)cc(C)cc1OC)N(CCOC)CCOC (centres unmarked) [Example 10l, 2-[N-(Bis(2-methoxyethyl)amino)]-4-methoxybutyric acid, 2,6-dimethoxy-4-methylphenyl ester]",26
23,"CCOCCN(CCOCC)C(CCOC)C(=O)Oc1c(OC)cc(C)cc1OC (centres unmarked) [Example 10m, 2-[N-(Bis(2-ethoxyethyl)amino)]-4-methoxybutyric acid, 2,6-dimethoxy-4-methylphenyl ester]",25
24,"COCCC(C(=O)Oc1c(OC)cc(C)cc1OC)N1CCCCCC1 (centres unmarked) [Example 10n, 2-[1-(Hexahydroazepinyl)]-4-methoxybutyric acid, 2,6-dimethoxy-4-methylphenyl ester]",38
25,"CCOCCC(C(=O)Oc1c(OC)cccc1OC)N1CCCOCC1 (centres unmarked) [Example 10p, 4-Ethoxy-2-[4-(hexahydro-1-oxazepinyl)]butyric acid, 2,6-dimethoxyphenyl ester]",23
26,"CCOCCC(C(=O)Oc1c(OC)cccc1OC)N(CCOC)CCOC (centres unmarked) [Example 10r, 2-[N-(Bis(2-methoxyethyl)amino)]-4-ethoxybutyric acid, 2,6-dimethoxyphenyl ester]",27
27,"CCOCCC(C(=O)Oc1c(OC)cccc1OC)N(CCOCC)CCOCC (centres unmarked) [Example 10s, 2-[N-(Bis(2-ethoxyethyl)amino)]-4-ethoxybutyric acid, 2,6-dimethoxyphenyl ester]",47
28,"CCOCCC(C(=O)Oc1c(OC)cc(C)cc1OC)N1CCCOCC1 (centres unmarked) [Example 10w, 4-Ethoxy-2-[4-(hexahydro-1-oxazepinyl)]butyric acid, 2,6-dimethoxy-4-methylphenyl ester]",26
29,"COc1cccc(OC)c1OC(=O)C(CN1CCOC(C)(C)C1)N1CCOC(C)(C)C1 (centres unmarked) [Example 18b, 2,3-Di-[4-(2,2-dimethylmorpholinyl)]propanoic acid, 2,6-dimethoxyphenyl ester]",31

# Reference: US7141560B2, “Alanine 2,6-dialkoxyphenyl ester derivatives as hypnotics” (Akzo Nobel N.V., priority 2001, dated 2006)
